# ChEMBL document CHEMBL4043062, “Recent developments in the isolation, biological function, biosynthesis, and synthesis of phenazine natural products” (Bioorg Med Chem, 2017)
# Test system: Mycobacterium tuberculosis
# Test: Antitubercular activity against rifampicin-resistant Mycobacterium tuberculosis ATCC 35338 harboring His-526-Tir mutation in rpoB gene after 7 days by Resazurin microtitre assay
# Type: functional
structure (smiles),measurement,value
C=CCC1Cc2c(c3ccccc3c3nc4ccccc4nc23)OC1(C)C (stereo unspecified),MIC,2.2 µM
